# Measurements: patent US20240016875A1, “SHAN-ZHA FOR THE TREATMENT OF DEPRESSION AND ANXIETY DISORDERS” (THE OPEN UNIVERSITY, priority 2020, published 2024)
# “Also recorded” adds a separate entry of the source.
# Experiments:
# Format in all cases: in vivo
# [1] = test system: stressed mice; test: Open field test (OFT), locomotor activity, Examples 1-3; settings: UCMS-stressed male ICR mice; herbs and NHT 30 mg/kg, escitalopram 15 mg/kg i.p., 3 weeks
# Method: ICR outbred 28-30 days old male mice (Envigo, Israel) were maintained in the vivarium of the Open University lab in Hadassah Ein Karem medical cement, Jerusalem. Mice were group housed (5 mice per cage) and each cage contained mice from all treatment groups. Mice were given ad libitum access to food and water except during stressor application (with the exclusion of the light/dark cycle reversal). Mice kept on a reversed 12 h light/dark cycle (lights on 7:00 pm-7:00 am) while experimental procedures were performed during the dark phase under red light. All experiments were approved by the Open University of Israel committee for animal care and use. Methods were carried out in accordance with the NIH guidelines.
# Crataegus pinnatifida, Triticum aestivum, Lilium brownii and Fructus zizyphi jujuba were purchased as freeze-dried granules (KPC Products, Inc., Irvine, CA, USA). […]
# The open field consists of an empty square arena (40×40×40 cm) and surrounded by Perspex opaque walls. Each mouse was placed in the center of the arena and video recorded for 5 min. […] Locomotor activity was expressed as the percentage of time that the mouse was moving in the arena in a velocity above 0.1 pixel/sec. […]
# [2] = test system: stressed mice; test: Tail Suspension Test (TST), UCMS-stressed mice, Example 7; settings: 30 mg/kg (escitalopram 15 mg/kg) i.p., 3 weeks, vs vehicle
# Method: (§1) Animals. ICR outbred mice (Envigo RMS (Harlen), Israel) are kept in the vivarium of the Open University lab in Hadassah medical center, Jerusalem. Mice are kept on a reversed 12 h light/dark cycle and given ad libitum access to food and water. All experiments are performed during the dark phase under red light (7:00-19:00). All experiments have been approved by the committee for animal care and use according to the NIH guidelines. Drugs. Drugs are dissolved in saline and 1% DMSO to the desired concentration and administered i.p. Herbal mixture and Shan-zha (30 mg/kg) will be prepared by dissolving each component (KPC Products, Inc., CA, USA) to a final concentration of 0.47 mg/ml. […] Unpredictable chronic mild stress (UCMS). Mice are exposed to UCMS for 4 weeks at the age of 4 weeks as previously described. Tail Suspension Test (TST). This test is based upon the evaluation of immobility as a measure of behavioral despair and are performed as previously described. Depressive-like behavior are expressed as the time the mouse was immobile.
# [3] = Body weight monitoring, stressed mice; settings: UCMS-stressed mice, Shan-zha and NHT 30 mg/kg, escitalopram 15 mg/kg i.p., 3 weeks, vs vehicle
# Method: (§2) Crataegus pinnatifida, Triticum aestivum, Lilium brownii and Fructus zizyphi jujuba were purchased as freeze-dried granules (KPC Products, Inc., Irvine, CA, USA). Each herb was dissolved in saline with 1% dimethylsulfoxide (DMSO) to a final concentration of 0.47 mg/ml and injected i.p. individually (30 mg/kg) or with the other components to form the formula (NHT, 30 mg/kg). […] Vehicle treatment included i.p. injection of saline with 1% DMSO. All treatments were carried out for 3 weeks. Mice were weighed every 3 days throughout the treatment period. Change in weight was calculated as final (weight-initial weight)/initial weight×100.
# [4] = test system: BDNF; test: BDNF ELISA of hippocampus and PFC, stressed mice; settings: UCMS-stressed mice; herbs and NHT 30 mg/kg, escitalopram 15 mg/kg i.p., 3 weeks; vs vehicle
# Method: Mice were decapitated, and their brains were placed on ice. Serial sections (1 mm wide) were cut onto slides, and tissue punches of the hippocampus and PFC (1.7 mm diameter) were taken. Tissue punches were homogenized in cold extraction buffer (Tris-buffered saline, pH 8.0, with 1% NP-40, 10% glycerol, 5 mM sodium metavanadate, 10 mM PMSF, 100 μg/ml aprotinin and 10 μg/ml leupeptin). Homogenates were acidified with 0.1 M HCl (pH 3.0), incubated at room temperature (22-24° C.) for 15 min, and neutralized (pH 7.6) with 0.1 M NaOH. Homogenates were then microfuged at 7000×g for 10 min. BDNF levels were quantified using sandwich ELISA (R&D systems, Minneapolis, MN, USA) according to the manufacturer's instructions.
# [5] = test system: stressed mice; test: Evaluation of sexual function (number of mounts), stressed mice; settings: UCMS-stressed male mice, 30 min with female in estrus, Shan-zha and NHT 30 mg/kg, escitalopram 15 mg/kg i.p., 3 weeks, vs vehicle
# Method: as §2, with “Each male mouse was placed with a female mouse in estrus in the male's home cage during the dark phase under red dim light for 30 min. Number of mounts” for “Mice”, “coded by an observer blind to” for “weighed every 3 days throughout”, “treatment.” for “treatment period. Change in weight was calculated as final (weight-initial weight)/initial weight×100.”
# [6] = test system: stressed mice; test: Forced Swim Test (FST), UCMS-stressed mice, Example 7; settings: 30 mg/kg (escitalopram 15 mg/kg) i.p., 3 weeks, vs vehicle
# Method: as §1, with “Forced Swim” for “Tail Suspension”, “(FST).” for “(TST).”, “immobile defined as cessation of limb movements except minor movement necessary to keep the mouse afloat.” for “immobile.”
compound,measurement,setting,value
CN(C)CCC[C@@]1(c2ccc(F)cc2)OCc2cc(C#N)ccc21 [escitalopram],locomotor activity in the OFT,[1],No change in locmotor activity
same,depressive-like behavior in the TST,[2],exhibited reduced depressive-like behavior in the TST compared to vehicle-treated stressed mice
same,weight change,[3],significantly increased weight compared to vehicle
same,weight change,[3]; listed as Escitalopram,higher weight gain in comparison with vehicle-treated mice
same,BDNF levels in the PFC,[4],elevations in BDNF levels in the PFC compared to vehicle-treated mice; also recorded: elevated BDNF levels in the PFC compared to vehicle
same,hippocampal BDNF levels,[4],elevations in hippocampal BDNF levels compared to vehicle-treated mice; also recorded: elevated hippocampal BDNF levels compared to vehicle
same,sexual function (number of mounts),[5],significantly reduced sexual function compared to vehicle
same,sexual function (number of mounts),[5]; listed as Escitalopram,lower number of mounts in comparison with vehicle-treated mice
same,depressive-like behavior in the FST,[6],exhibited reduced depressive-like behavior in the FST compared to vehicle-treated stressed mice
